Measured values as given in patent publication US12616704B2, “Cannabichromene formulation for pain management” (Zyus Life Sciences Inc., priority 2020, dated 2026).

What was measured:
Assay type in all cases: in vivo, C57BL/6J mice
[1] = tested on: Oxaliplatin-induced cool allodynia; test: Acetone Cooling Test (ACT) in oxaliplatin-induced polyneuropathy (OIPN) model; settings: CBC 20 mg/kg p.o., Duloxetine 25 mg/kg i.p.
Protocol: Model Induction—Mouse Oxaliplatin-induced polyneuropathy (OIPN) model was induced over a three-week period. The day of first Oxaliplatin (OXP) injection is referred to as day 0 (DO). OXP was administered as six separate intraperitoneal injections at 4.5-mg/kg (10 ml/kg, i.p.) to Groups 2, 3, and 4 on DO, D4, D8, D12, D16, and D20. The cumulative OXP dose was thus 27 mg/kg. The in-life procedures, such as observations, tests, and/or measurements were performed by Charles River Discovery Services with blinded methods. The mice were distributed into 4 groups (n=8 for Vehicle Control; n=10 OXP Control; n=20 CBC; n=15 Duloxetine).
Treatments—Following exposure to OXP for 20 days, Groups 3 and 4 were treated with CBC (20 mg/kg, p.o.) and Duloxetine (25 mg/kg, i.p.), respectively, for 10 consecutive days. In a similar regimen Groups 1 and 2 (Vehicle Control and OXP-Vehicle Control, respectively) received a corresponding volume of 5% glucose solution at an administration volume of 10 mL/kg.
Acetone Cooling Test (ACT) —To produce a measurable cooling sensation, 10-15 μL of acetone was applied onto the medial area of the plantar hind paw with a 0.5 ml insulin syringe. Responses of a mouse to acetone were monitored for 20 s, and a score given based on a four-point scale (0-3 points), according to the response intensity, continuation, and briskness. The higher the score, the greater the cool allodynia sensed by the mouse.
Within one test timepoint, a total of 3 trials were performed per paw with a minimum gap of 5 min between testing. The three individual scores were added up to obtain a single score over a cumulative period of 60 s. Thus, for one test, the minimum score of one paw is 0 (no cool allodynia), while the maximum possible score is 9 (intensive cool allodynia). The total scores for the left and right paws were averaged to accomplish a single result value per mouse at each timepoint.
The Acetone Cooling Test was performed prior to OXP administration (Baseline), following the last OXP injection (D21), one day after the first CBC, Duloxetine, or Vehicle treatment (D22), and after a 10-day daily dosing of CBC, Duloxetine, or Vehicle treatment (D31). Taken together, the ACT was used to assess chemotherapy-induce cool allodynia as stated in the schedule:
On D22: At 60 min after the first Vehicle/CBC dose and 120 min after Dulx dose.
On D31: At 60 min after the last Vehicle/CBC and 120 min after Dulx dose.

[2] = Body weight in OIPN study; settings: OIPN mice; CBC 20 mg/kg p.o., Duloxetine 25 mg/kg i.p.
Protocol: Body Weight—Animal body weights were measured before assigning the treatment groups and then on each day of the study. The last body weight measurement was performed upon endpoint sampling. Terminal body weights were not collected from animals found dead or euthanized moribund.

[3] = Welfare observations in OIPN study; settings: Duloxetine 25 mg/kg i.p., OIPN mice
Description: Seven mice were disqualified from further study due to showing too mild cool allodynia.

With `CNCC[C@H](Oc1cccc2ccccc12)c1cccs1` [Duloxetine, reference compound] the “ACT score compared with OXP-Vehicle control” value ([1]; D22, acute single dose) was “statistically significant and comparable reduction in cool allodynia”, the “ACT score compared with OXP-Vehicle control” value ([1]; D31, chronic repeated dosing) was “maintained a significant reduction in cool allodynia” and the “ACT score, D31 vs. D21” value ([1]; within group, 10-day repeated dosing) was “significant reduction of cool allodynia”. For the same compound, the “ACT score, reversion of cool allodynia D22 vs. D21 pre-treatment: p” value ([1]; within group, single dose) was under 0.01, the “body weight development from D22 onwards” value [2] was “slower increase in body weight” and the “share of the group with adverse effects (enlarged staring eyes and clearly decreased activity)” value [3] was 30%.
